Test results reported in patent US12391641B2, “Prostaglandin EP4 receptor antagonist compounds” (NXERA PHARMA UK LIMITED, priority 2019, dated 2025).

Molecular target: T1, Human prostaglandin E2 receptor 4 (EP4) (Homo sapiens, UniProt P35408)
T1 construct: expressed in transfected cells; host or cells: HEK293 cells transduced with EP4 BacMam virus
Experiment: cAMP Gs Functional Assay (HTRF cAMP dynamic-2), antagonism of PGE2
Type: cell-based
Settings: HEK293 cells transfected with EP4 BacMam virus; PGE2 challenge at EC80 (7 nM); pIC50 converted to functional pKb with a modified Cheng Prussoff equation; read-out: Human EP4 fpKb (converted)
Description: Cloning, Baculovirus generation, large scale infection of HEK293 cells and membrane preparation: Human prostaglandin E2 receptor 4 (EP4) was cloned into pBacMam expression vector (GeneScript, UK). Transposition of EP4 DNA was performed using Invitrogen's Bac-to-Bac Baculovirus Expression Systems. P0 baculovirus was generated by transfecting SF9 Cells with bacmid DNA using Cellfectin II transfection reagent (ThermoFisher Scientific, UK, catalog number 10362-100). Following P0 generation P1 virus was then generated ready for large scale infection and membrane preparation. HEK293 cells were grown in DMEM+Glutamax, supplemented with 10% heat inactivated fetal bovine serum (FBS). Cells were infected at a seeding density of 3.5 million cells/mL in 500 cm^3 flasks at 5% v/v EP4 Bacman. Expression was carried out over 36 hr period at 37° C. with 5% CO2. The cells were removed using PBS and a cell scrapper. The cell culture was centrifuged at 2500 RPM for 10 mins at 4° C. The supernatant was then poured off and the pellet stored at −80° C. The pellet was defrosted and re-suspended in 15 mL of homogenising buffer (20 mM HEPES, 10 mM EDTA, pH 7.4). Then homogenised in mechanical homogeniser (VMR) for 10 seconds. The membrane was centrifuged in centrifuge tubes at 40,000 g for 15 mins at 4° C. The supernatant was poured away and re-suspended in 15 mL of homogenising buffer. Homogenised for 20 seconds. The membrane was centrifuged at 40,000 g for 45 mins at 4° C. The membrane was re-suspended in 3 mL of storage buffer (20 mM HEPES, 0.1 mM EDTA, pH 7.4) mixing well. The resulting membranes were then stored at −80° C.
cAMP Gs Functional Assay: cAMP production following EP4 receptor activation was determined using the Homogeneous Time-Resolved Fluorescence (HTRF) cAMP dynamic-2 assay (Cisbio, France). HEK293 cells were transfected using a 0.5% EP4 Bacman virus for 36 hours, before dissociating the cells, and freezing at […].
On the day of testing, increasing concentration of test compounds, alongside positive controls (1 uM ONO-AE3-208) and negative control (DMSO (Sigma-Aldrich, UK) were added to a ProxiPlate-384 Plus, White 384-shallow well Mircoplate, (PerkinElmer, USA) using the ECHO dispense.
Cells were defrosted in a water bath and resuspended in DMEM supplemented with 10% FBS before centrifuging at 1200 RPM for 5 mins to form a pellet. The pellet was resuspended in assay buffer (DMEM+0.5 mM IBMX (Tocris, Abingdon, UK, Catalog Number 2845)) to a 1×10^6 cells/mL. Cell suspension, for a final assay concentration of 5000 cell/well was added using the multidrop to the pre-dispensed assay plate. The plate was then incubated at 37° C. for 30 mins, with 5% CO2. After incubation, EC80 concentration (7 nM) of PGE2 (EP4 agonist) was added to the plate. In parallel, a PGE2 dose-response curve was dispense to a separate plate. Assay buffer was then dispensed on top. The cAMP production was determined as manufacturer's instructions, before plates were read on a PheraStar fluorescence plate reader (BMG LabTech, Germany).
The pIC50 was converted to a functional pKb value using a modified Cheng Prussoff equation where Kd=agonist EC50 and Lhot=agonist challenge concentration;

T1 sequence (P35408 whole entry): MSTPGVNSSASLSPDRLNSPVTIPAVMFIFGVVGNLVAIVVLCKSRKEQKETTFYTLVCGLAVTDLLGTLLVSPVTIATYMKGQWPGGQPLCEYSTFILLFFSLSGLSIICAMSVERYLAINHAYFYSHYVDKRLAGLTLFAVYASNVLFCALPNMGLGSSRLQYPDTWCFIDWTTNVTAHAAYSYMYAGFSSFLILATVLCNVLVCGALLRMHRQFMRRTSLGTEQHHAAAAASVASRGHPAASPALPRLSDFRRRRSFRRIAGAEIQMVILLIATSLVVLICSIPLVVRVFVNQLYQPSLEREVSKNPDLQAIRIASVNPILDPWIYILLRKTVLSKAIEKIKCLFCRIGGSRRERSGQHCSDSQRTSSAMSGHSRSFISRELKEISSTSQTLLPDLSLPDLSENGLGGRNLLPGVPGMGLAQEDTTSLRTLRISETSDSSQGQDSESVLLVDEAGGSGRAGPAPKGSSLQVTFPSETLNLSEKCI

Row | Ki | Compound
1 | 0.00363 µM | C[C@H](NC(=O)C(OCc1ccc(C(F)(F)F)cc1)C1CCC1)c1ccc(C(=O)O)cc1 (single isomer, unassigned) [Example 93]
2 | 0.000398 µM | CC(C)[C@@H](OCc1ccc(C(F)F)cc1)C(=O)NC1(c2ccc(C(=O)O)cc2)CC1 [Example 62, (R)-4-(1-(2-((4-(difluoromethyl)benzyl)oxy)-3-methylbutanamido)cyclopropyl)benzoic acid]
3 | 0.0295 µM | CC(C)[C@@H](OCc1cccc(S(=O)(=O)C2CC2)c1)C(=O)N[C@@H](C)c1ccc(C(=O)O)cc1 [Example 90, 4-((S)-1-((R)-2-((3-(cyclopropylsulfonyl)benzyl)oxy)-3-methylbutanamido)ethyl)benzoic acid]
4 | 0.0331 µM | CC(C)[C@@H](OCc1ccc(C(F)(F)F)nc1)C(=O)NC1(c2ccc(C(=O)O)cc2)CC1 [Example 76, (R)-4-(1-(3-methyl-2-((6-(trifluoromethyl)pyridin-3-yl)methoxy)butanamido)cyclopropyl)benzoic acid]
5 | 0.00174 µM | CC(C)[C@@H](OCc1ccc(F)cc1)C(=O)N[C@@H](C)c1ccc(-c2nnn[nH]2)cc1 [Example 42, (R)—N—((S)-1-(4-(1H-tetrazol-5-yl)phenyl)ethyl)-2-((4-fluorobenzyl)oxy)-3-methylbutanamide]
6 | 0.000447 µM | CC(C)C(OCc1cccc(C2COC2)c1)C(=O)NC1(c2ccc(C(=O)O)cc2)CC1 (single isomer, unassigned) [Example 86, 4-(1-(3-methyl-2-((3-(oxetan-3-yl)benzyl)oxy)butanamido)cyclopropyl)benzoic acid]
7 | > 0.603 µM | CC(C)C(OCc1cccc(C2COC2)c1)C(=O)NC1(c2ccc(C(=O)O)cc2)CC1 (single isomer, unassigned) [Example 87, 4-(1-(3-methyl-2-((3-(oxetan-3-yl)benzyl)oxy)butanamido)cyclopropyl)benzoic acid]
8 | > 4.68 µM | CC(C)[C@@H](OCc1cccc(O)c1)C(=O)N[C@@H](C)c1ccc(C(=O)O)cc1 [Example 38, 4-((S)-1-((R)-2-((3-hydroxybenzyl)oxy)-3-methylbutanamido)ethyl)benzoic acid]
9 | 0.000955 µM | CC(C)[C@@H](OCc1ccc(C(F)(F)F)cc1)C(=O)NC1(c2ccc(-c3nnn[nH]3)cc2)CC1 [Example 69, (R)—N-(1-(4-(1H-tetrazol-5-yl)phenyl)cyclopropyl)-3-methyl-2-((4-(trifluoromethyl)benzyl)oxy)butanamide]
10 | 0.0155 µM | O=C(O)c1ccc(C2(NC(=O)[C@@H](OCc3cccc(OC(F)F)c3)C3CCC3)CC2)cc1 [Example 100, (S)-4-(1-(2-cyclobutyl-2-((3-(difluoromethoxy)benzyl)oxy)acetamido)cyclopropyl)benzoic acid]
11 | 0.0117 µM | CC(C)[C@@H](OCc1ccc(C(F)F)cn1)C(=O)NC1(c2ccc(C(=O)O)cc2)CC1 [Example 88, (R)-4-(1-(2-((5-(difluoromethyl)pyridin-2-yl)methoxy)-3-methylbutanamido)cyclopropyl)benzoic acid]
12 | 0.00676 µM | CC(C)[C@@H](OCc1ccc(F)c(C2CC2)c1)C(=O)NC1(c2ccc(C(=O)O)cc2)CC1 [Example 89, (R)-4-(1-(2-((3-cyclopropyl-4-fluorobenzyl)oxy)-3-methylbutanamido)cyclopropyl)benzoic acid]
13 | 0.0347 µM | CC(C)[C@@H](OCc1ccn2ccnc2c1)C(=O)N[C@@H](C)c1ccc(C(=O)O)cc1 [Example 66, 4-((S)-1-((R)-2-(imidazo[1,2-a]pyridin-7-ylmethoxy)-3-methylbutanamido)ethyl)benzoic acid]
14 | 0.00724 µM | CC(O[C@@H](C(=O)N[C@@H](C)c1ccc(C(=O)O)cc1)C(C)C)c1ccc(F)cc1 (mixture of isomers) [Example 46, 4-((1 S)-1-((2R)-2-(1-(4-fluorophenyl)ethoxy)-3-methylbutanamido)ethyl)benzoic acid]

The remaining lines, values behind:

Row | Compound | Ki
15 | CC(C)[C@@H](OCc1ccc(S(F)(F)(F)(F)F)cc1)C(=O)N[C@@H](C)c1ccc(C(=O)O)cc1 [Example 26, 4-((S)-1-((R)-3-methyl-2-((4-(pentafluoro-λ^6-sulfaneyl)benzyl)oxy)butanamido)ethyl)benzoic acid] | 0.0275 µM
16 | CC(C)[C@@H](OCc1cccc(S(C)(=O)=O)c1)C(=O)NC1(c2ccc(C(=O)O)cc2)CC1 [Example 33, (R)-4-(1-(3-methyl-2-((3-(methylsulfonyl)benzyl)oxy)butanamido)cyclopropyl)benzoic acid] | 0.0145 µM
17 | CC(C)C(OCc1cccc(F)c1)C(=O)N[C@@H](C)c1ccc(C(=O)O)cc1 (single isomer, unassigned) [Example 18] | 0.457 µM
18 | CC(C)[C@@H](OCc1ccc2c(c1)OC(F)(F)O2)C(=O)N[C@@H](C)c1ccc(C(=O)O)cc1 [Example 28, 4-((S)-1-((R)-2-((2,2-difluorobenzo[d][1,3]dioxol-5-yl)methoxy)-3-methylbutanamido)ethyl)benzoic acid] | 0.000151 µM
19 | CC(C)[C@@H](OCc1ccc(C#N)cc1)C(=O)N[C@@H](C)c1ccc(C(=O)O)cc1 [Example 21, 4-((S)-1-((R)-2-((4-cyanobenzyl)oxy)-3-methylbutanamido)ethyl)benzoic acid] | 0.0331 µM
20 | CC(C)[C@H](OCc1ccc(S(C)(=O)=O)cc1)C(=O)N[C@@H](C)c1ccc(C(=O)O)cc1 [Example 9, 4-((S)-1-((S)-3-methyl-2-((4-(methylsulfonyl)benzyl)oxy)butanamido)ethyl)benzoic acid] | > 0.195 µM
21 | CC(C)[C@@H](OCc1ccc(S(C)(=O)=O)cc1)C(=O)N[C@@H](C)c1ccc(C(=O)O)cc1 [Example 10, 4-((S)-1-((R)-3-methyl-2-((4-(methylsulfonyl)benzyl)oxy)butanamido)ethyl)benzoic acid] | 0.0204 µM
22 | COc1ccc(COC(C(=O)N[C@@H](C)c2ccc(C(=O)O)cc2)C(C)C)cc1 (mixture of isomers) [Example 6, 4-((1S)-1-(2-((4-methoxybenzyl)oxy)-3-methylbutanamido)ethyl)benzoic acid] | 0.0282 µM
23 | CC(C)[C@@H](OCc1ccc(C(F)(F)F)cn1)C(=O)N[C@@H](C)c1ccc(C(=O)O)cc1 [Example 25, 4-((S)-1-((R)-3-methyl-2-((5-(trifluoromethyl)pyridin-2-yl)methoxy)butanamido)ethyl)benzoic acid] | 0.0138 µM
24 | CC(C)[C@@H](OCc1cccc(C#N)c1)C(=O)N[C@@H](C)c1ccc(C(=O)O)cc1 [Example 22, 4-((S)-1-((R)-2-((3-cyanobenzyl)oxy)-3-methylbutanamido)ethyl)benzoic acid] | 0.00724 µM
25 | CC(C)[C@H](OCc1cccc(S(C)(=O)=O)c1)C(=O)N[C@@H](C)c1ccc(C(=O)O)cc1 [Example 7, 4-((S)-1-((S)-3-methyl-2-((3-(methylsulfonyl)benzyl)oxy)butanamido)ethyl)benzoic acid] | > 0.195 µM
26 | CC(C)[C@@H](OCc1ccc(C(F)F)c(F)c1)C(=O)N[C@@H](C)c1ccc(C(=O)O)cc1 [Example 29, 4-((S)-1-((R)-2-((4-(difluoromethyl)-3-fluorobenzyl)oxy)-3-methylbutanamido)ethyl)benzoic acid] | 0.000603 µM
27 | CC(C)[C@@H](OCc1ccc(C(F)(F)F)cc1)C(=O)N[C@@H](C)c1ccc(C(=O)O)cc1 [Example 1, 4-((S)-1-((R)-3-methyl-2-((4-(trifluoromethyl)benzyl)oxy)butanamido)ethyl)benzoic acid] | 0.000776 µM
28 | CC(C)[C@@H](OCc1cccc(C(F)F)c1)C(=O)N[C@@H](C)c1ccc(C(=O)O)cc1 [Example 14, 4-((S)-1-((R)-2-((3-(difluoromethyl)benzyl)oxy)-3-methylbutanamido)ethyl)benzoic acid] | 0.00182 µM
29 | CC(C)[C@@H](OCc1ccc(F)c(F)c1)C(=O)N[C@@H](C)c1ccc(C(=O)O)cc1 [Example 27, 4-((S)-1-((R)-2-((3,4-difluorobenzyl)oxy)-3-methylbutanamido)ethyl)benzoic acid] | 0.00191 µM
